The values that follow are results of earlier work, collected in patent US9375525B2, “Modular extracorporeal systems and methods for treating blood-borne diseases” (Somerset Group Enterprises, Inc., priority 2012, dated 2016).

Like-named read-outs stand apart in the source and are kept apart here.

Data set [1] relates to pathogens. The note with it: bactericidal or static.
The test system of data set [2] is Listeria. The note with it: carbonation volume of about 2, about 35° C., pressure up to about 350 MPa, about 300 seconds.
For data set [3], the system named is S. aureus. The note with it: basic conditions versus slightly acidic conditions.

`CCCCCCCCCC(=O)N[C@@H](Cc1c[nH]c2ccccc12)C(=O)N[C@H](CC(N)=O)C(=O)N[C@@H](CC(=O)O)C(=O)N[C@@H]1C(=O)NCC(=O)N[C@@H](CCCN)C(=O)N[C@@H](CC(=O)O)C(=O)N[C@H](C)C(=O)N[C@@H](CC(=O)O)C(=O)NCC(=O)N[C@H](CO)C(=O)N[C@@H]([C@H](C)CC(=O)O)C(=O)N[C@@H](CC(=O)c2ccccc2N)C(=O)O[C@@H]1C` [Daptomycin]: the activity result in data set [1] was “bactericidal”. For `O=C(O)c1cn(C2CC2)c2cc(N3CCNCC3)c(F)cc2c1=O` [Ciprofloxalin], the activity entry in data set [1] was “bactericidal”. Regarding Gentamycin, the “Issues with Respect to In vivo Toxicity or Side Effects” value (“Issues” below) (in vivo use) is recorded as “Nephrotoxicity, ototoxicity”. Moreover, the activity entry in data set [1] is recorded as “bactericidal”. On to Polymixin B, for which, where the note is “in vivo”, the “Issues” value is “due to renal and neurotoxicity”. Further, in data set [1], the activity entry was “bactericidal”. For the compound `N[C@@H]1[C@H]2CN(c3nc4c(cc3F)c(=O)c(C(=O)O)cn4-c3ccc(F)cc3F)C[C@@H]12` [Trovafloxacin], the “Issues” value (in vivo) is on record as “Histamine release, Idiosyncratic”. Besides, in data set [1], the activity result is “bactericidal”. As for `CN(C)c1cc(NC(=O)CNC(C)(C)C)c(O)c2c1C[C@H]1C[C@H]3[C@H](N(C)C)C(O)=C(C(N)=O)C(=O)[C@@]3(O)C(O)=C1C2=O` [Tigecycline], the activity entry in data set [1] was “static”.

Regarding Colistin, under “in vivo use”, the “Issues” value is recorded as “Only used as last resort antibiotics”. Also, the activity entry in data set [1] is on record as “bactericidal”. With `NCC[C@H](O)C(=O)N[C@@H]1C[C@H](N)[C@@H](O[C@H]2O[C@H](CN)[C@@H](O)[C@H](O)[C@H]2O)[C@H](O)[C@H]1O[C@H]1O[C@H](CO)[C@@H](O)[C@H](N)[C@H]1O` [Amikacin], the “Issues” value (in vivo) is reported as “Nephrotoxicity, ototoxicity”. Moreover, the activity result in data set [1] was “bactericidal”.

On to `NC[C@H]1O[C@H](O[C@H]2[C@H](O)[C@@H](O[C@H]3O[C@H](CO)[C@@H](O)[C@H](N)[C@H]3O)[C@H](N)C[C@@H]2N)[C@H](N)C[C@@H]1O` [Tobramycin], for which the “Issues” value (in vivo) is recorded as “Nephrotoxicity, ototoxicity”. For the same compound, the activity result in data set [1] is on record as “bactericidal”. In the case of `O=C=O` [CO2, Carbon dioxide], in data set [2], the “inactivation of Listeria” value is “enhanced the inactivation”.

With `CN[C@H](CC(C)C)C(=O)N[C@H]1C(=O)N[C@@H](CC(N)=O)C(=O)N[C@H]2C(=O)N[C@H]3C(=O)N[C@H](C(=O)N[C@H](C(=O)O)c4cc(O)cc(O)c4-c4cc3ccc4O)[C@H](O)c3ccc(c(Cl)c3)Oc3cc2cc(c3O[C@@H]2O[C@H](CO)[C@@H](O)[C@H](O)[C@H]2O[C@H]2C[C@](C)(N)[C@H](O)[C@H](C)O2)Oc2ccc(cc2Cl)[C@H]1O` [vancomycin], the “killing S. aureus” value in data set [3] was “under basic conditions better than under slightly acidic conditions”.
